Experimental data taken from paper PMC5665883, “Antithrombotic properties of JJ1, a potent and novel thrombin inhibitor” (Scientific Reports, 2017).

What was measured:
[1] = FeCl3-induced arterial thrombosis model; type: in vivo, C57BL/6 mice; conditions: mice, i.v.
Experimental: The FeCl3-induced thrombosis mouse model was established as previously described. Male C57BL/6 mice were fasted overnight and were administered JJ1 in DMSO by intravenous injection. Then, mice were anesthetized using 3% isoflurane (Forane®, Choongwae Pharma. Corp., Seoul, Korea) and injected intravenously with 0.1 mL 0.1% rhodamine 6 G (Sigma). A testicular artery (200 μm in diameter) was carefully exposed and a cotton thread (200 μm in diameter) saturated with 0.25 mol/L FeCl3 was applied to the adventitial surface. After 5 min, the cotton thread was removed, and the wound was flushed with saline solution. Thrombus formation was monitored at 35 °C by 3-dimensional imaging as previously described. The size and time of thrombus formation were monitored, and the findings were scored as follows: no thrombus, 0; small thrombus (50 μm × 75 μm), 1; medium-sized thrombus (100 μm × 150 μm), 2; large thrombus (200 μm × 300 μm), 3. The time from FeCl3-mediated endothelial injury to occlusion of the testicular artery by a large thrombus was measured.

[2] = Organ injury markers (biochemical safety parameters); type: in vivo, C57BL/6 mice; design: BUN: unit not given here
Experimental: The safety of JJ1 is another promising feature. Animal safety markers such as aspartate transaminase (AST) and alanine transaminase (ALT) (markers of hepatic injury) and creatinine and blood urea nitrogen (BUN) (markers of renal injury) were assessed with blood samples obtained at 48 h after JJ1 injection. […] Serum levels of AST, ALT, BUN, and creatinine were measured using commercial assay kits (Pointe Scientific, Linclon Park, MI).

Urokinase = Urokinase (Homo sapiens, UniProt P00749); test: Chromogenic substrate assay, Ki (Dixon); type: biochemical
Experimental: (§1) Chromogenic substrate assays were performed using a Labsystems IEMS (Cergy Pontoise, France) microtiter plate reader. K i values were calculated according to the method of Dixon[65]. In each assay, the compound was tested at a minimum of seven concentrations, in duplicate, to obtain an inhibition curve. The following general procedures were adopted for each assay. In a 96-well microtiter plate, 25 μL of inhibitor solution or buffer was added to 50 μL of substrate. The enzyme solution (25 μL) was added just before the plate was placed in the microtiter plate reader for 1 h at 37 °C. The hydrolysis of the substrate yields p-nitroaniline, which was continuously monitored spectrophotometrically at 405 nm. The maximal initial reaction rates were calculated and expressed as millioptical density per minute.

tPA = tPA (Homo sapiens, UniProt P00750); test: Chromogenic substrate assay, Ki (Dixon); type: biochemical
tPA, sequence (P00750 36-562): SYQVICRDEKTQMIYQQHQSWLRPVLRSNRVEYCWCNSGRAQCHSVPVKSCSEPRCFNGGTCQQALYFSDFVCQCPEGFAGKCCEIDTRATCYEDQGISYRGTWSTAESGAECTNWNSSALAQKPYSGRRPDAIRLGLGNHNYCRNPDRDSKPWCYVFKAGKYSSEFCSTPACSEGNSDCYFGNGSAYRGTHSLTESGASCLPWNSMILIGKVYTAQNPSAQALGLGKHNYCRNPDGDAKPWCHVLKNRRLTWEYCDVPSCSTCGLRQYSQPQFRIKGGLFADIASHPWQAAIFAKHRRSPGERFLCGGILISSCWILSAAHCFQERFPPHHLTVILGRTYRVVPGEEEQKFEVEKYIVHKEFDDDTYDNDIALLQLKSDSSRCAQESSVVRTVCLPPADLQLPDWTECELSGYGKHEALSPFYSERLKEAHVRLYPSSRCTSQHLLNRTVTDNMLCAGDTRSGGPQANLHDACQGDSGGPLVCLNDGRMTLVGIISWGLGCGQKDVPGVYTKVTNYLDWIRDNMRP
Experimental: as §1

human platelets = test: In vitro thrombin-induced platelet aggregation; type: cell-based; conditions: washed human platelets
Experimental: The in vitro platelet aggregation study was performed according to a previously reported method[59],[62]. Washed human platelets were incubated with the indicated concentration of JJ1 in DMSO for 1, 3, 5, or 10 min and subsequently stimulated by thrombin in 0.9% saline solution at 37 °C for 5 min. Platelet aggregation was recorded using an aggregometer (Chronolog, Havertown, PA, USA). For the ex vivo aggregation assay, male mice were fasted overnight and the indicated concentration of JJ1 in DMSO was administered by i.v. injection. After 24 h, PRP (10^9 platelets/mL) in a total volume of 240 μL was incubated at 37 °C for 1.5 min in the aggregometer with continuous stirring at 1000 rpm and subsequently stimulated with thrombin. Platelet aggregation was recorded as described above.

human α-thrombin = target: T1, human α-thrombin (Homo sapiens, UniProt P00734); test: Chromogenic substrate assay, Ki (Dixon); type: biochemical
T1 construct: purchased Haematologic Technologies (Essex Junction, VT)
Experimental: as §1

human plasma [3] = test: In vitro aPTT clotting time; type: biochemical; conditions: for aPTT: in vitro
Experimental: The aPTT and PT were determined using a Thrombotimer (Behnk Elektronik, Norderstedt, Germany) in accordance with the manufacturer’s instructions and as previously described. Briefly, citrated normal human plasma (90 μL) was mixed with 10 μL JJ1 and incubated for 1 min at 37 °C. Subsequently, the aPTT assay reagent (100 μL) was added, the plasma sample was incubated for an additional 1 min at 37 °C, 20 mM CaCl2 (100 μL) was added, and the clotting times were recorded. For the PT assays, citrated normal human plasma (90 μL) was mixed with 10 μL JJ1 stock solution and was incubated for 1 min at 37 °C. The PT assay reagent (200 μL), which had been pre-incubated for 10 min at 37 °C, was subsequently added and the clotting time was recorded. The PT results were expressed in seconds and as International Normalized Ratios (INR): INR = (PT sample/PT control)^ISI, where ISI = international sensitivity index. The aPTT results were also expressed in seconds. All experimental protocols (KNUH 2012-01-010) were approved by the Institutional Review Board of Kyungpook National University Hospitals (Daegu, Republic of Korea).

[4] = Pharmacokinetics after i.v. injection; type: in vivo; conditions: mouse, plasma, iv, male C57BL/6 mice, 2 mg/kg, fasting
Experimental: The penile veins of male C57BL/6 mice were injected with 2 mg/kg JJ1. Approximately 50 μL of blood was obtained from the tail vein immediately before and at 5, 15, 30, 60, and 180 min after injection; 80 μL acetonitrile and internal standard solution (reserpine) were then added to these samples, and plasma samples (10 μL) were prepared by centrifugation of the blood at 13,000 rpm for 15 min at 4 °C. An aliquot (2 μL) of the supernatant was then injected into an HPLC column. The pharmacokinetic parameters were determined using the standard non-compartmental method. The area under the curve for serum was calculated using the log linear trapezoidal method on WinNonlin (version 2.0; Scientific Consulting, KY, USA). The samples were analyzed using an Accela^TM LC system coupled to a TSQ Vantage triple quadrupole mass spectrometer (Thermo Fisher Scientific Inc., USA) equipped with a HESI-II Spray source. For the LC analysis, an ACE® 5C18, 3 μm (2.1 × 50 mm) column was used. The mobile phases were (A) LC-grade® water containing 0.1% formic acid, and (B) LC grade acetonitrile containing 0.1% formic acid (B). This initial composition was increased to 95% solvent (B) for 3 minutes. The gradient program for HPLC used a flow rate of […]. […]

thrombin = target: T2, thrombin (Homo sapiens, UniProt P00734); test: Thrombin activity assay (amidolytic activity, S-2238); type: biochemical; conditions: α-Thrombin, chromogenic substrate; read-out: IC50, inhibition of amidolytic activity of thrombin (converted)
T2 construct: thrombin solution (150 μL, 10 U/mL) was added; purchased Haematologic Technologies (Essex Junction, VT)
Experimental: Following a 2-min incubation at 37 °C, thrombin solution (150 μL, 10 U/mL) was added, followed by incubation at 37 °C for 1 min. A solution of the thrombin substrate, S-2238, (150 μL, 1.5 mM) solution was subsequently added and the absorbance at 405 nm was monitored for 120 s using a spectrophotometer (TECAN, Männedorf, Switzerland).

human plasma [5] = test: In vitro PT clotting time; type: biochemical; conditions: at the maximum antithrombotic dose
[6] = male C57BL/6 mice, 3.06 μg/mouse, 48 h after injection

SMILES: c1ccc2c(NC3CCCC3)nc(Nc3ccncc3)nc2c1 [JJ1]
- Growth of thrombi (time to large thrombus formation) ([1]; FeCl3-induced thrombosis): significantly slowed the growth of thrombi
- Thrombus size at 60 min after FeCl3-induced endothelial injury [1]: reduced FeCl3-induced thrombus formation
- Plasma levels of AST, ALT, BUN, and creatinine compared to DMSO-treated animals ([2]; after 2 days): no significant differences
- ALT [2, 6]: 7.5 ± 0.63 IU/L
- AST [2, 6]: 15.1 ± 1.29 IU/L
- BUN [2, 6]: 17.1 ± 1.31
- Creatinine [2, 6]: 0.139 ± 0.012 mg/dL
- Selectivity ratio (Urokinase; K i Urokinase/K i α-thrombin): >10,000
- Ki (Urokinase; Urokinase): > 250000 nM
- Selectivity ratio (tPA; K i tPA/K i α-thrombin): >10,000
- Ki (tPA; tPA): > 250000 nM
- Human platelet aggregation induced by thrombin (human platelets): significantly inhibited human platelet aggregation induced by thrombin in a concentration-dependent manner
- Selectivity ratio (human α-thrombin; K i enzyme/K i α-thrombin): 1
- Ki (human α-thrombin; mean ± SD (n = 5)): 19 ± 0.5 nM
- Concentration that doubled the clotting time, aPTT assay (human plasma [3]): 1.66 µM
- aPTT (human plasma [3]; 0.05 μM): 23.5 ± 0.4 s
- aPTT (human plasma [3]; 0.1 μM): 23.3 ± 0.2 s
- aPTT (human plasma [3]; 0.2 μM): 24.2 ± 0.4 s
- aPTT (human plasma [3]; 0.5 μM): 32.4 ± 0.6 s
- aPTT (human plasma [3]; 1.0 μM): 41.3 ± 0.4 s
- aPTT (human plasma [3]; 2.0 μM): 50.4 ± 0.6 s
- aPTT (human plasma [3]; 5.0 μM): 51.6 ± 0.4 s
- AUC [4]: 6100 ng·h/mL
- half-life [4]: 3.1 h
- IC50 (thrombin): 150 nM
- Prolongation of PT (human plasma [5]): 2.22 fold
